Reference: article PMC9686139, “Furanoditerpenes from Spongia (Spongia) tubulifera Display Mitochondrial-Mediated Neuroprotective Effects by Targeting Cyclophilin D” (ACS Chemical Neuroscience, 2022)
“And” between values parts separate entries of the source, which are not always exact repeats. Identical values can stand only once.

What was measured:
[1] = test system: CypD; test: CypD expression by Western blot
Description: (b) CypD expression after treatment with S. tubulifera metabolites. (c) Effect of compounds on the CypD expression under oxidative stress conditions. […] Protein band expression was normalized by actin levels. Results are mean ± SEM of three replicates carried out in duplicate. Data expressed as the percentage of untreated control cells and H2O2 control. Values compared by one-way ANOVA and Dunnett’s tests. ^#p < 0.05 and ^##p < 0.01 compared to control cells. *p < 0.05 and **p < 0.01 compared to cells treated with H2O2 alone.
In this context, the expression of this protein was analyzed after treatment with compounds. CypD cytosolic levels were evaluated after treatment with 1–5 alone for 6 h and after the coaddition of diterpenes and H2O2 to get a complete insight into diterpene mitochondria-related effects.
SH-SY5Y cells were cultured in 12-well plates at 1 × 10^6 cells per well and allowed to settle down for 24 h.
Cells were washed twice with ice-cold PBS, and a hypotonic solution was added (20 mM tris–HCl pH 7.4, 10 mM NaCl, and 3 mM MgCl2, containing phosphatase and protease inhibitor cocktail). Cells were incubated for 15 min on ice and centrifuged at 3000 rpm and 4 °C for 15 min. The supernatant was collected as the cytosolic fraction, and protein concentration was quantified with the Direct Detect instrument (Merck Millipore, Darmstadt, Germany).[15]
Electrophoresis was resolved in 4–20% sodium dodecyl sulfate polyacrylamide gels (Biorad, Hercules, CA), containing 15 μg of cytosolic protein from each sample. The Trans-Blot semidry transfer cell (Biorad) was used to transfer proteins to poly(vinylidene difluoride) (PVDF) membranes (Merck Millipore). Snap i.d. system (Merck Millipore) was used for membrane blocking and antibody incubation. […] Immunoreactive bands were detected with Supersignal West Pico Luminiscent Substrate and Supersignal West Femto Maximum Sensitivity Substrate. Diversity GeneSnap system and software (Syngene, Cambridge, U.K.) were used for protein band detection. Experiments were performed three independent times in duplicate.

[2] = test system: SH-SY5Y cells; test: ROS intracellular levels, carboxy-H2DCFDA; assay type: cell-based, human
Description: Next, the capacity of S. tubulifera metabolites to decrease ROS intracellular levels was evaluated (Figure 4). […] Regarding the oxidative stress model, H2O2 augmented the levels of oxidant molecules up to 125.1 ± 2.4% (p < 0.01) and the known antioxidant Vit E, used as a positive control, induced a reduction in ROS release of 24% with respect to cells treated only with H2O2 (p < 0.05).
Figure 4 ROS intracellular levels after treatment with compounds. Furanoditerpenes were added for 6 h in the absence and presence of 150 μM H2O2. Then, the ROS content was measured with the fluorescent dye 5-(and-6)-carboxy-2′,7′-dichlorodihydrofluorescein diacetate (carboxy-H2DCFDA). Results from (a) 1, (b) 2, (c) 3, (d) 4, and (e) 5. Vitamin E (Vit E) at 25 μM was used as a positive control. Data expressed as the percentage of untreated control cells. Mean ± SEM of three experiments performed in triplicate. Statistical differences determined by one-way ANOVA test followed by Dunnett’s post hoc test. ^##p < 0.01 compared to control cells. *p < 0.05, **p < 0.01, and ***p < 0.01 compared to H2O2 control.
(§1) For these experiments, cells were seeded in 384-well plates and treated as described above. All of the assays were carried out as previously described.[15]
The fluorescent dye 5-(and-6)-carboxy-2′,7′-dichlorodihydrofluorescein diacetate (carboxy-H2DCFDA) was used to evaluate ROS levels. After treatment with compounds and H2O2, cells were washed twice with serum-free medium. Next, cells were loaded with 20 μM carboxy-H2DCFDA dissolved in serum-free medium, and the plate was incubated for 1 h at 37 °C and 300 rpm. Then, 100 μL of PBS were added to each well for 30 min at 37 °C and 300 rpm. After this incubation, the fluorescence was read at […].

[3] = target: Human CypA (Homo sapiens, UniProt P62937); test: Surface plasmon resonance binding to immobilized CypA; settings: for Kd: CypA, SPR, 1:1 Langmuir model, PBS-T pH 7.2, 24 °C; for kon: read-out: ka, CypA
Chain of Human CypA (P62937 whole entry): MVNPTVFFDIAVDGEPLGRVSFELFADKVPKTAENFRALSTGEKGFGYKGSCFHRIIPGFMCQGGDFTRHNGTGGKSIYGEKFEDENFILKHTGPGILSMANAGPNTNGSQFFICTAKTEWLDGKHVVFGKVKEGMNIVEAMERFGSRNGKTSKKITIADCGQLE
Description: The protein was immobilized on the sensor surface by amino coupling, as described above (Figure S7), and compounds at several concentrations were added. The same conditions set for CypD were used for CypA experiments, with a flow rate of 20 μL/min and PBS-T (pH 7.2) as the running buffer.
Figure 9 Binding of compounds to CypA measured by surface plasmon resonance. The left panels present association curves obtained by the addition of compounds over immobilized CypA and subtraction of their respective vehicle signal. The right panels show fitting curves for equilibrium binding. Representative graphs of one independent replicate. […] Kinetic equilibrium dissociation constants (KD) and fitting curves were obtained with TraceDrawer software.
(§2) SPR measurements were performed using the MP-SPR Navi 210A VASA instrument with SPR Navi Control software (BioNavis, Tampere, Finland). All of the analyses were carried out in three-dimensional (3D) carboxymethyl dextran hydrogel-coated (CMD-3DM) sensors (BioNavis). PBS, 0.05% Tween (pH 7.2) was used as the running buffer for sensor activation, protein immobilization, and analyte injection. All buffers were degassed and filtered by 0.22 μm before use. The flow rate and temperature were set at 20 μL/min and 24 °C, respectively. A commercial Amine Coupling Kit (Xantec bioanalytics GmbH, Düsseldorf, Germany) was used for sensor activation and Cyps immobilization. The chip surface was preconditioned with 2 M NaCl and 0.01 M NaOH. Then, the surface was activated by the addition of 0.2 M 1-ethyl-3-(3-dimethylaminopropyl)carbodiimide hydrochloride (EDC) and 0.05 M N-hydroxysuccinimide (NHS). After activation, 50 μg/mL of CypA or CypD dissolved in 5 mM sodium acetate buffer (pH 4.5) were injected for immobilization on the sensor surface. […] Compound injections were performed in serial mode, and the reference channel signal was subtracted from the analyte sensorgram. Data were processed with MP-SPR Navi Data Viewer (BioNavis), and KD values were obtained using the 1:1 Langmuir model with mass transport considerations of TraceDrawer software (RidgeView Instruments Ab, Uppsala, Sweden). All of the experiments were performed three independent times.

[4] = target: human CypD (Homo sapiens, UniProt P30405); test: Surface plasmon resonance binding to immobilized CypD; settings: for kon: read-out: ka, CypD
Chain of human CypD (P30405 30-207): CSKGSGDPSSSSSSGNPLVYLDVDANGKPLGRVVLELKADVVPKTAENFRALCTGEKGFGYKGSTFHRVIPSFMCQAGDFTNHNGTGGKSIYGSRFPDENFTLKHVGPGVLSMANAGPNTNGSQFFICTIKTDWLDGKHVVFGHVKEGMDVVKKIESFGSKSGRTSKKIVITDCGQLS
Description: With this objective, surface plasmon resonance (SPR) experiments were performed. CypD was immobilized in the sensor surface as a ligand, and 1–5 were injected as analytes. […] For immobilization, amine groups were activated with 1-ethyl-3-(3-dimethylaminopropyl)carbodiimide hydrochloride (EDC) and N-hydroxysuccinimide (NHS) and 50 μg/mL of human CypD dissolved in 5 mM sodium acetate (pH 4.5) was added. […] All of the assays were carried out with phosphate-buffered saline (PBS)—0.05% Tween (pH 7.2) as the running buffer, with a flow rate of 20 μL/min at 24 °C.
The left panels present association curves obtained by the addition of compounds over immobilized CypD and subtraction of their respective solvent control. The right panels show fitting curves for equilibrium binding. Representative graphs of one independent replicate. […] All injections were performed using PBS, 0.05% Tween (pH 7.2) as the running buffer. Kinetic equilibrium dissociation constants (KD) and fitting curves were obtained with TraceDrawer software.
as §2

[5] = test system: ERK; test: ERK activation (phosphorylated/total) by Western blot; assay type: cell-based, human
Text: Considering that CypD has several upstream regulators, which are also considered mPTP modulators,[10] the study was continued by evaluating if S. tubulifera metabolites were affecting the activation of two kinases involved in the control of mPTP by CypD, ERK, and GSK3β (Figure 7). Regarding ERK, its activation has been related to the inhibition of CypD-mediated mPTP opening. Therefore, the phosphorylated state of residues implicated in ERK activation (Thr202, Tyr204, Thr185, and Tyr187) was determined, as well as its total levels. Any of the compounds were able to activate ERK under neither physiological nor oxidative conditions (Figure 7a,b). However, 3 inhibited the kinase in both situations, with levels of 78.6 ± 4.8% (p < 0.05) and 67.3 ± 9.4% (p < 0.01), respectively. […] On the other hand, GSK3β inhibition results in a reduction in mPTP opening since the kinase binds to CypD, decreasing its interaction with mPTP components.[10] In the case of GSK3β, Ser9 phosphorylation was determined, a residue implicated in kinase inhibition (Figure 7c,d).
Figure 7 Analysis of compound effects on CypD upstream regulators. SH-SY5Y cells were treated with 1–5 at 0.001 μM for 6 h, and their effects on kinase activation were evaluated. […] Kinase expression was calculated as the ratio between phosphorylated and total levels. […] Data expressed as the percentage of untreated control cells and H2O2 control. […]

[6] = test system: SH-SY5Y cells; test: GSH content, Thiol Tracker Violet; assay type: cell-based, human; settings: for GSH content: 150 μM H2O2, 6 h, % of untreated control cells
Description: To confirm the antioxidant properties of S. tubulifera compounds, the levels of the most important nonenzymatic antioxidant of cells, glutathione (GSH), were assessed. […] Regarding diterpene 2, an increase in the nonenzymatic antioxidant was observed when cells were cotreated with H2O2 and this compound at 0.001 and 1 μM (p < 0.05) (Figure 5b). No effects were found after the addition of 3 (Figure 5c), but 4 and 5 presented interesting results (Figure 5d,e).
Figure 5 Effect of S. tubulifera metabolites in the GSH content of human neuroblastoma cells. SH-SY5Y cells were treated with compounds for 6 h with and without 150 μM H2O2. GSH levels were monitored with Thiol Tracker Violet dye. (a) Compound 1, (b) compound 2, (c) compound 3, (d) compound 4, and (e) compound 5 results. Vitamin E (Vit E) at 25 μM was used as a positive control. Mean ± SEM of three experiments performed in triplicate. Data presented as the percentage of untreated control cells and compared by one-way ANOVA and Dunnett’s tests. ^##p < 0.01 compared to control cells. *p < 0.05 compared to cells treated with H2O2 alone.
as §1
Thiol Tracker Violet was used to measure intracellular GSH levels, following the manufacturer’s instructions. Briefly, human neuroblastoma cells were rinsed twice with PBS and the fluorescence dye at 10 μM was added. The plate was incubated for 30 min at 37 °C and 300 rpm, and the fluorescence was measured at 404 nm excitation and 526 nm emission in a plate reader. All experiments were performed three independent times in triplicate.

[7] = test system: mitochondrial permeability transition pore (mPTP); settings: 0.25 h, 0.001 µM
Description: (§3) SH-SY5Y cells were treated for 15 min with 1–5, and 1 mM tert-butyl hydroperoxide (TBHP) was used to open the pore. Cells were loaded with calcein-AM, which accumulates in cytosol and cell compartments and with CoCl2 that quenches cytosolic fluorescence but not the mitochondrial signal.[17] Then, fluorescence was analyzed by flow cytometry (Figure 6a). […] (a) Analysis of mPTP opening. Cells were treated with compounds at 0.001 μM for 15 min, and pore opening was induced with 1 mM TBHP. Calcein-AM and CoCl2 were used to measure mPTP aperture by flow cytometry. […] Values are presented as the percentage of control cells. Data are mean ± SEM of three independent experiments. Statistical differences determined by one-way ANOVA and Dunnett’s tests. ^###p < 0.001 compared to control cells. *p < 0.05 and **p < 0.01 compared to cells treated only with TBHP.
(§4) The inhibition of mPTP by compounds was determined with the MitoProbe Transition Pore Assay Kit, as previously described.[21] For this assay, cells were seeded in 12-well plates at 5 × 10^5 cells per well and allowed to grow for 24 h. Then, SH-SY5Y cells were detached with Detachin solution (Genlatis, San Diego), washed with PBS, and resuspended in PBS buffer with 0.6 mM CaCl2. Cells were loaded with 0.01 μM calcein-AM and incubated at 37 °C for 15 min. Then, 0.4 mM CoCl2 and compounds at 0.001 μM were added and cells were incubated for 15 min at 37 °C. After this incubation, cells were centrifuged, resuspended in 100 μL of calcium-free PBS, and kept on ice. Finally, TBHP at 1 mM was added for 3 min to the cells to induce the pore opening. […] The fluorescence of 10 000 events was analyzed with IDEAS Application vs 6.0 (Amnis Corporation, Luminex Corp).

[8] = test system: mitochondrial permeability transition pore (mPTP); test: mPTP opening, calcein-AM/CoCl2 flow cytometry; settings: 0.001 μM, 15 min pretreatment, TBHP 3 min
Description: as §3, §4

Kd [3] | kon [3] | Kd [4] | kon [4] | maximum SPR signal, CypA [3] | Compound | effect on CypD expression ([1]; 0.001 μM) | effect on ROS content ([2]; cotreatment with 150 μM H2O2, 6 h, all four concentrations 0.001-1 μM) | ERK activation (phosphorylated/total) ([5]; compound 0.001 μM + 150 μM H2O2, 6 h, % of H2O2 control) | ERK activation (phosphorylated/total) ([5]; compound alone 0.001 μM, 6 h, % of untreated control cells) | effect on GSH content ([6]; compound alone and with 150 μM H2O2, 6 h) | CypD expression under oxidative damage ([1]; compound 0.001 μM + 150 μM H2O2, 6 h, % of H2O2 control cells) | selectivity between CypD and CypA (KD values) ([4]; SPR, CypD versus CypA) | calcein fluorescence (mPTP opening) [7] | inhibition of mPTP opening after oxidative injury [8] | GSH content ([6]; compound 0.001 μM) | GSH content ([6]; compound 0.1 μM) | reduction in ROS release with respect to cells treated only with H2O2 ([2]; Vit E 25 μM, 150 μM H2O2, 6 h)
6.39 µM and 6.4 µM | 3190 M⁻¹ s⁻¹ | 7 ± 0.04 µM | 3750 M⁻¹ s⁻¹ |  | CC1=C(O)C(=O)C[C@]2(C)[C@H]3CCc4cocc4[C@]3(C)CC[C@@H]12 [Compound 3] | did not affect CypD expression | diminished ROS levels | 67.3 ± 9.4% | 78.6 ± 4.8% | No effects |  |  |  |  |  |  | 
4.34 µM and 4.3 µM | 3590 M⁻¹ s⁻¹ | 2.97 ± 0.01 µM | 10000 M⁻¹ s⁻¹ | 13.6 mdeg | C[C@]12C=C(O)C(=O)[C@](C)(CO)[C@@H]1CC[C@@]1(C)c3cocc3CC[C@H]21 [Compound 5, spongian diterpene 17] |  |  |  |  |  | about 54% | selectivity toward the mitochondrial isoform | 90.3 ± 5.3% | able to inhibit mPTP opening | 110.9 ± 10.0% | 118.9 ± 12.0% | 
 |  |  |  |  | Vitamin E [Vit E, reference compound] |  |  |  |  |  |  |  |  |  |  |  | 24%
